This is an account of results in US12071436B2, “Anti-parasitic compounds and uses thereof” (Memorial Sloan-Kettering Cancer Center, priority 2016, dated 2024).

One data set in a line: Cytotoxicity (Table 1). It is filed as cell-based.
The test system of data set [1] is Trypanosoma cruzi parasites. As to the kind of experiment: Trypanosoma cruzi in vitro IC50 (structure-activity analyses). It is filed as cell-based. To be noted: infection with Trypanosoma cruzi parasites for 72 hours and treatment with the compound for 72 hours. How it is done:
Select compounds described herein were evaluated for structure-activity analyses in vitro.

For a further data set, the system named is Asynchronous cultures. The data set can be described thus: Parasitocidal or parasitostatic determination (rate of killing). It is filed as cell-based. As to conditions: treatment for 72 hours. How it is done: Asynchronous cultures were grown and treated with compounds, vehicle control or Dihydroartemisinin at 3×IC50 to determine their respective rate of killing curves. Cultures were treated for 12, 24, 48, or 72 hours with compound, washed several times to remove any inhibitor, and monitored for continued growth for several days. […] Overall, the exemplary compounds including, but not limited to, Tan003-M03 and ent-Tan003-D20 are parasitocidal agents blocking parasite maturation at the segmenter stage preventing egress, a novel mechanism of action absent among current antimalarials.

Data set [2] concerns synchronized parasite cultures (Dd2). As to the kind of experiment: Stage specific parasite inhibition (Giemsa smears, flow cytometry). It is filed as cell-based, P. falciparum. How it is done: Select compounds described herein were evaluated for stage specific inhibition of parasite development. Tightly synchronized parasite cultures (Dd2) were treated with 3×IC50 concentrations of compound Tan003-M03 (“M03”), compound ent-Tan003-D20 (“D20-ent”), compound Tan003-O08 (“008”) or compound Tan002-O12 (“012”) at early ring, late ring, trophozoite, and schizont stages. Every 12 hours, Giemsa smears were made for treated cultures and samples were also collected and fixed for flow cytometry. […] Prior to flow analysis, fixed samples were permeabilized, RNase treated, and stained with YoYo-I as described in Bouillon et al., 2013. […] As the parasite matures, the DNA content increases and peaks start to spread to the right because of schizogony. Following reinvasion parasitemia increases in the next growth cycle, which is represented by an increase in peak height.

pIC50: −log10 of the molar value.

Compound `CC(C)(C)[S@@+]([O-])N1Cc2cc(C(=O)N[C@@H]3CCN(Cc4ccccc4)C3)nc(-c3cccc(Br)c3)c2[C@H]1CCO` [Compound 86, (R)-N-((R)-1-Benzylpyrrolidin-3-yl)-4-(3-bromophenyl)-2-((R)-tert-butylsulfinyl)-3-(2-hydroxyethyl)-2,3-dihydro-1H-pyrrolo[3,4-c]pyridine-6-carboxamide] displayed a Cytotoxicity in “Cytotoxicity (Table 1)” above 10 µM. Moreover, the pIC50 (in general, −log10 of the IC50, conventionally taken in molar units) in data set [1] was 5.55.
Consider `CN(C)CC#Cc1cccc(-c2nc(C(=O)N[C@H]3CCN(Cc4ccccc4)C3)cc3c2[C@@H](CCO)N([S@+]([O-])C(C)(C)C)C3)c1` [Compound 89, (R)-N-((S)-1-benzylpyrrolidin-3-yl)-2-((R)-tert-butylsulfinyl)-4-(3-(3-(dimethylamino)prop-1-yn-1-yl)phenyl)-3-(2-hydroxyethyl)-2,3-dihydro-1H-pyrrolo[3,4-c]pyridine-6-carboxamide], for which the Cytotoxicity in “Cytotoxicity (Table 1)” was above 10 µM. In addition, the pIC50 in data set [1] is 7.55.
`CCOC(=O)c1cc2c(c(-c3cccc(C#CCN(C)C)c3)n1)[C@@H](CCO)N([S@+]([O-])C(C)(C)C)C2` [Compound 90, Ethyl (R)-2-((R)-tert-butylsulfinyl)-4-(3-(3-(dimethylamino)prop-1-yn-1-yl)phenyl)-3-(2-hydroxyethyl)-2,3-dihydro-1H-pyrrolo[3,4-c]pyridine-6-carboxylate] showed a Cytotoxicity in the data set “Cytotoxicity (Table 1)” above 10 µM. This compound had a negative logarithm of the IC50 (pIC50) in data set [1] of 5.07.
On to `CC(C)(C)[S@@+]([O-])N1Cc2cc(C(=O)NCc3ccc4c(c3)OCO4)nc(-c3cccc(-c4cccnc4)c3)c2[C@H]1CCO` [Tan003-O08, (R)-N-(benzo[d][1,3]dioxol-5-ylmethyl)-2-((R)-tert-butylsulfinyl)-3-(2-hydroxyethyl)-4-(3-(pyridin-3-yl)phenyl)-2,3-dihydro-1H-pyrrolo[3,4-c]pyridine-6-carboxamide], for which, in the data set with Asynchronous cultures, the “viable parasites in asynchronous culture” value was “significantly decreases viable parasites”. Also, the “parasite stage development, Giemsa staining” value in data set [2] (3×IC50, synchronized Dd2 cultures treated at ring, trophozoite or schizont stages, smears every 12 hours) was “inhibit parasite development before egress”. Besides, the “parasite stage progression, flow cytometry” value in data set [2] (3×IC50, synchronized Dd2 cultures, YoYo-I DNA staining) is “block parasite stage progression prior to egress”.
